Assay in all cases: NCI tumour cell line growth inhibition, 48 h
The subject of experiment [1] is A498 renal.
In experiment [2] the test system is CAKI-1 renal.
Experiment [3] concerns HCC-2998 colon.
For experiment [4], the system named is HCT-15 colon.
Experiment [5] has as its system K-562 leukemia.
The subject of experiment [6] is M14 melanoma.
For experiment [7], the system named is NCI-H522 lung.
The test system of experiment [8] is RXF 393 renal.
In experiment [9] the test system is SF-295 CNS.
Experiment [10] has as its system SR leukemia.

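Values below derive from 48-hour exposures of cells grown in 96-well plates, with endpoints linearly interpolated between the two concentrations bracketing the appropriate inhibition level. At the GI50, growth is halved. Definition used: TGI = concentration required for complete inhibition of growth.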

In the case of `COc1ccc(/C=C2/C[N+](C)(C)C/C(=C/c3ccc(OC)cc3)C2=O)cc1`, the TGI was above 100 µM in experiment [1]; above 100 µM in [2]; 31 µM in [3]; above 100 µM in experiment [4]; above 100 µM in experiment [5]; above 100 µM in experiment [6]. In addition, the TGI was 37.9 µM in experiment [7], above 100 µM in experiment [8] and above 100 µM in experiment [9].
On to `CCOC(=O)c1ccc(N2C(=O)/C(=C\OC)c3ccccc3C2=O)cc1`, for which the TGI in experiment [2] was above 100 µM; in experiment [3] it was above 100 µM; in [4], above 100 µM; in [5], above 100 µM; in experiment [7], above 100 µM; in experiment [8] it was 61.3 µM. For the same compound, the TGI in [9] and in [10] was above 100 µM in each case.
Regarding `COC(=O)Nc1nc2ccccc2c(=O)[nH]1`, the TGI in experiment [2], in experiment [3], in experiment [4], in [5], in experiment [6] and in [7] was above 100 µM throughout. Also, the TGI in experiment [8], in experiment [9] and in experiment [10] was above 100 µM each time.
As to `CCOC(=O)CC1=CSC2=NCCN12`, the TGI in [1], in [2], in experiment [3], in experiment [4], in [5] and in experiment [6] was above 100 µM each time. The TGI in experiment [7], in [8] and in experiment [9] was above 100 µM in each case.
On to `C[C@H]1CCC/C=C/[C@@H]2C[C@H](O)C[C@H]2[C@H](O)[C@@H](S(=O)CCN(C)C)CC(=O)O1` (some centres not stated), for which the GI50 in experiment [1] was 0.116 µM; in [2], 0.389 µM; in experiment [3], 0.386 µM; in [4], 0.363 µM; in experiment [5], 0.633 µM; in experiment [6], 0.111 µM. Also, the GI50 in experiment [7] was 0.0677 µM; in experiment [8] it was 0.0542 µM; in experiment [9] it was 0.524 µM. The TGI was above 100 µM in experiment [3]; above 57.9 µM in experiment [4]; above 100 µM in experiment [5]; above 59.3 µM in experiment [6]; 0.191 µM in experiment [7]; above 100 µM in experiment [8]. In experiment [9], the TGI is above 100 µM.
For `c1ccc(N=C2c3ccccc3C3=NCCCN32)cc1`, the TGI in [1], in experiment [2], in experiment [3], in [4], in [5] and in [6] was above 100 µM throughout. The figures for the TGI in experiment [7], in [8] and in experiment [9] were 96.8 µM, above 100 µM and above 100 µM, respectively.
As to `C=C(CN1CCc2ccccc2C1)c1ccc(C(=O)Nc2ccc(N)cc2)cc1`, the GI50 is 21.4 µM in experiment [1]; 19.6 µM in experiment [2]; 14.6 µM in experiment [3]; 32.2 µM in [4]; 1.94 µM in [5]; 11.8 µM in [6]. The GI50 in experiment [7] was 3.89 µM; in [8], 16.9 µM; in experiment [9] it was 16.5 µM. Moreover, the TGI in experiment [1] was above 100 µM; in [2], above 100 µM; in [3], 43 µM; in experiment [4] it was above 100 µM; in [5], above 100 µM; in experiment [6], 65.6 µM. Further, the values for the TGI in [7], in experiment [8] and in [9] were 21 µM, 91.4 µM and 59.4 µM, respectively.
As to `COc1ccc(-c2nc(-c3ccccc3)c(-c3ccccc3)n2C2CC2)cc1OC1CCCC1`, the GI50 in experiment [1] was 9.57 µM; in [2], 50.2 µM; in [4] it was 7.26 µM; in [5], 11.5 µM; in experiment [6] it was 163 µM; in experiment [7], 62.1 µM. The GI50 in experiment [9] is 67.5 µM; in experiment [10], 7.92 µM. Further, the TGI in experiment [1], in experiment [2], in experiment [4], in experiment [5], in experiment [6] and in [7] was above 165 µM each time. The TGI in [9] is above 165 µM; in experiment [10] it was 59.4 µM.
For `N=C(N)CCCCCCCCC(=N)N`, the GI50 is 11.6 µM in experiment [1]; 7.37 µM in experiment [2]; 28.5 µM in experiment [3]; 47.2 µM in [4]; 19.7 µM in experiment [5]; 56.7 µM in experiment [6]. Moreover, the figures for the GI50 in [7], in [8] and in experiment [9] were 41.4 µM, above 100 µM and 23.5 µM, respectively. Besides, the TGI in experiment [1] is 68.5 µM; in experiment [2] it was above 100 µM; in experiment [3], above 100 µM; in experiment [4], above 100 µM; in experiment [5], above 100 µM; in experiment [6], above 100 µM. In addition, the TGI in experiment [7] is above 100 µM; in experiment [8] it was above 100 µM; in experiment [9], 81.3 µM.
For the compound `CC[N+](CC)(CC)CCCn1c2c(c3ccccc3c1=O)C(=O)c1ccccc1-2`, the GI50 in [2] was 3.74 µM; in [3] it was 5.62 µM; in experiment [4], 4.97 µM; in experiment [5], 18.7 µM; in [6] it was 3.1 µM; in experiment [7] it was 4.71 µM. Moreover, the results for the GI50 in [8], in experiment [9] and in [10] were 0.056 µM, 7.38 µM and 3.56 µM, respectively. The TGI in experiment [2] was 30.9 µM; in experiment [3], 20.9 µM; in [4], above 100 µM; in experiment [5] it was above 100 µM; in experiment [6], 12.1 µM; in experiment [7] it was 21.4 µM. Further, the TGI in experiment [8] was 17.6 µM; in experiment [9], 57.9 µM; in experiment [10], above 100 µM.
On to `Cc1c2cc[nH]c(=O)c2cc2c(=O)c3cnccc3[nH]c12`, for which the TGI in [1], in [2], in [3], in experiment [4], in experiment [5] and in [6] was above 100 µM each time. The TGI in experiment [7], in experiment [8] and in [9] was above 100 µM in each case.
With `O=C(O)c1cc2c(cn1)[nH]c1ccccc12`, the TGI in experiment [2], in experiment [3], in experiment [4], in experiment [5], in [6] and in [7] was above 100 µM each time. The TGI in experiment [8], in experiment [9] and in experiment [10] was above 100 µM each time.
For the compound `ON=C1CCC(c2ccccc2)CC1` (configuration not stated), the TGI in experiment [1], in experiment [2], in [3], in experiment [4], in experiment [5] and in [6] was above 100 µM each time. Moreover, the TGI in [7], in experiment [8] and in experiment [9] was above 100 µM throughout.
As to `Cc1cc(S(=O)(=O)Nc2nnc(-c3ccccc3)c(-c3ccccc3)n2)c(SCc2ccccc2)cc1Cl`, the GI50 in experiment [1] is 19.8 µM; in experiment [2], 25.5 µM; in [3] it was 27.3 µM; in experiment [4] it was 20.3 µM; in [5], 29.6 µM; in experiment [6] it was 20.7 µM. The GI50 is 21.8 µM in [7], 19.8 µM in experiment [8] and 19.5 µM in experiment [9]. Moreover, the TGI in [1] is 39.1 µM; in experiment [2], 42.5 µM; in experiment [3], 43.8 µM; in experiment [4] it was 43.3 µM; in experiment [5], above 100 µM; in [6], 42.1 µM. The figures for the TGI in [7], in experiment [8] and in experiment [9] were 53.7 µM, 39.2 µM and 38.5 µM, respectively.
Take `O=C(c1ccccc1)c1c(C(=O)c2ccccc2)c(-c2ccccc2)c2c(-c3ccccc3)sc(-c3ccccc3)c2c1-c1ccccc1`: the TGI in experiment [1], in experiment [2], in experiment [3], in experiment [4], in [5] and in experiment [6] was above 100 µM throughout. Also, the TGI in experiment [7], in experiment [8] and in experiment [9] was above 100 µM in each case.
For `COC(=O)N/N=C/c1oc(-c2cccc([N+](=O)[O-])c2)c(-c2cccc([N+](=O)[O-])c2)c1[N+](=O)[O-]`, the TGI in experiment [3], in [4], in experiment [5], in experiment [6], in experiment [7] and in experiment [8] was above 100 µM throughout. The TGI in experiment [9] and in experiment [10] was above 100 µM each time.
For `N.N.NC(CS)C(=O)[O-].NC(CS)C(=O)[O-].[Pt+4]` (configuration not stated), the GI50 in experiment [3], in experiment [4], in experiment [5], in experiment [6], in [7] and in [8] was above 50 µM throughout. Moreover, the GI50 in experiment [9] and in experiment [10] was above 50 µM each time. Also, the TGI in experiment [3], in experiment [4], in experiment [5], in experiment [6], in [7] and in experiment [8] was above 50 µM throughout. Moreover, the TGI in experiment [9] and in experiment [10] was above 50 µM in each case.
Consider `CN(C)CCCNC(=O)c1cc(NC(=O)c2cc(NC(=O)c3cc(NC(=O)CCc4c[nH]c5ccccc45)cn3C)cn2C)cn1C`, for which the GI50 in experiment [3], in experiment [4], in [5], in [6], in experiment [7] and in experiment [8] was above 100 µM in each case. Besides, the GI50 in experiment [9] and in [10] was above 100 µM throughout. The TGI in [3], in experiment [4], in experiment [5], in [6], in experiment [7] and in experiment [8] was above 100 µM each time. Besides, the TGI in experiment [9] and in [10] was above 100 µM in each case.
With `CC(=O)N1c2ccccc2Sc2cc(C(O)(C(F)(F)F)C(F)(F)F)ccc21`, the TGI in experiment [1], in [2], in [3], in experiment [4], in [5] and in [6] was above 10 µM throughout. For the same compound, the TGI in [7], in experiment [8] and in [9] was above 10 µM throughout.
Turning to `CCOC(=O)C1C(=O)c2ccccc2CN1Cc1ccccc1` (configuration not stated), the TGI in [2], in experiment [3], in [4], in experiment [5], in [6] and in [7] was above 100 µM in each case. The TGI in experiment [9] and in experiment [10] was above 100 µM in each case.
In the case of `CC(=O)OCC1OC(n2c(=O)n(-c3ccccc3)c(=O)c3ccccc32)C(OC(C)=O)C(OC(C)=O)C1OC(C)=O` (configuration not stated), the TGI in experiment [1], in experiment [2], in [3], in experiment [4], in experiment [5] and in experiment [6] was above 100 µM each time. Further, the TGI in [7], in experiment [8] and in [9] was above 100 µM each time.
As to `C/C=C(\C)C(=O)O[C@H]1C=CC(=O)O[C@H]1CNC(=O)[C@H](C)O`, the GI50 in experiment [1] was 22.8 µM; in experiment [2] it was 26.8 µM; in experiment [3] it was 17.7 µM; in experiment [4] it was 15.6 µM; in experiment [5], 22.3 µM; in experiment [6], 18.6 µM. Moreover, the GI50 in [7] is 11.6 µM; in experiment [8], 19.3 µM; in experiment [9], 32.6 µM. The TGI in experiment [1] is 43.7 µM; in [2] it was 44.4 µM; in [3], 33.7 µM; in [4] it was 32 µM; in [5], above 100 µM; in experiment [6], 41 µM. Moreover, the TGI in experiment [7] was 31 µM; in [8], 40.1 µM; in [9], above 100 µM.
Consider `COC(=O)c1c(CC#N)cccc1CC#N`, for which the TGI in [2], in experiment [3], in experiment [4], in [5], in [6] and in experiment [7] was above 100 µM throughout. The TGI in experiment [8], in experiment [9] and in experiment [10] was above 100 µM in each case.

The values above are taken from PubChem BioAssay (NCI).
